Assay results taken from patent US12594243B2, “Pharmaceutical formulations” (THERACOSBIO, LLC, priority 2020, dated 2026).

Key:
[1] = human, in vivo
Text: In a drug-drug interaction clinical pharmacology study the effects of the GLP-1 receptor agonist exenatide on the pharmacokinetics of bexagliflozin were studied in a randomized crossover study. It is known that GLP-1 receptor agonists retard gastric emptying and because the bexagliflozin dosage form has a gastroretentive mechanism, the possibility that the retardation would adversely affect bexagliflozin delivery was considered important to address (see e.g., Guideline on the pharmacokinetic and clinical evaluation of modified release dosage forms (EMA/CPMP/EWP/280/96 Corr1) section 5.1.4.2.). In the study, participants were assigned to either receive bexagliflozin alone first, or combined treatment with bexagliflozin and exenatide first. Each group received both treatments alternately, in a crossover fashion (two-period, two-treatment crossover design), with the two treatment periods separated by a 7-day washout period. […] Although the endpoints of the confidence intervals fell outside of the range 80-125%, indicating an interaction leading to a change in exposure when bexagliflozin was administered following exenatide, the effect of exenatide on bexagliflozin pharmacokinetics was not so large as to jeopardize patient safety or to provoke a recommendation for a change in prescribing pattern. […] Absorption was delayed when bexagliflozin was administered 30 minutes after exenatide injection, with a median Tmax of 5.00 hours post-dose compared to 2.00 hours post-dose following administration of bexagliflozin alone.

P-gp = P-gp (Homo sapiens, UniProt P08183); test: P-gp substrate observation; type: in vitro ADME
Text: Because P-gp expression increases with distance along the small intestine, absorption is likely greater in the duodenum than the ileum, and quantitative mass balance studies using [^14C]-bexagliflozin have shown that colonic absorption is minimal (Zhang et al. Xenobiotica. 2019 Aug. 27:1-11. doi: 10.1080/00498254.2019.1654634). Because of the potential practical incompatibility of using an extended release tablet while aiming for most drug release to occur high in the small intestine, tablets of the invention advantageously include an adaptation that can help to retain them in the stomach. A large part of the extended release of bexagliflozin can thus occur in the stomach, permitting absorption of the drug to occur at the desired location in the small intestine, thereby providing an advantageous pharmacokinetic profile.

[2] = quantitative mass balance studies using [^14C]-bexagliflozin; cited from earlier work

Chain of P-gp (P08183 whole entry): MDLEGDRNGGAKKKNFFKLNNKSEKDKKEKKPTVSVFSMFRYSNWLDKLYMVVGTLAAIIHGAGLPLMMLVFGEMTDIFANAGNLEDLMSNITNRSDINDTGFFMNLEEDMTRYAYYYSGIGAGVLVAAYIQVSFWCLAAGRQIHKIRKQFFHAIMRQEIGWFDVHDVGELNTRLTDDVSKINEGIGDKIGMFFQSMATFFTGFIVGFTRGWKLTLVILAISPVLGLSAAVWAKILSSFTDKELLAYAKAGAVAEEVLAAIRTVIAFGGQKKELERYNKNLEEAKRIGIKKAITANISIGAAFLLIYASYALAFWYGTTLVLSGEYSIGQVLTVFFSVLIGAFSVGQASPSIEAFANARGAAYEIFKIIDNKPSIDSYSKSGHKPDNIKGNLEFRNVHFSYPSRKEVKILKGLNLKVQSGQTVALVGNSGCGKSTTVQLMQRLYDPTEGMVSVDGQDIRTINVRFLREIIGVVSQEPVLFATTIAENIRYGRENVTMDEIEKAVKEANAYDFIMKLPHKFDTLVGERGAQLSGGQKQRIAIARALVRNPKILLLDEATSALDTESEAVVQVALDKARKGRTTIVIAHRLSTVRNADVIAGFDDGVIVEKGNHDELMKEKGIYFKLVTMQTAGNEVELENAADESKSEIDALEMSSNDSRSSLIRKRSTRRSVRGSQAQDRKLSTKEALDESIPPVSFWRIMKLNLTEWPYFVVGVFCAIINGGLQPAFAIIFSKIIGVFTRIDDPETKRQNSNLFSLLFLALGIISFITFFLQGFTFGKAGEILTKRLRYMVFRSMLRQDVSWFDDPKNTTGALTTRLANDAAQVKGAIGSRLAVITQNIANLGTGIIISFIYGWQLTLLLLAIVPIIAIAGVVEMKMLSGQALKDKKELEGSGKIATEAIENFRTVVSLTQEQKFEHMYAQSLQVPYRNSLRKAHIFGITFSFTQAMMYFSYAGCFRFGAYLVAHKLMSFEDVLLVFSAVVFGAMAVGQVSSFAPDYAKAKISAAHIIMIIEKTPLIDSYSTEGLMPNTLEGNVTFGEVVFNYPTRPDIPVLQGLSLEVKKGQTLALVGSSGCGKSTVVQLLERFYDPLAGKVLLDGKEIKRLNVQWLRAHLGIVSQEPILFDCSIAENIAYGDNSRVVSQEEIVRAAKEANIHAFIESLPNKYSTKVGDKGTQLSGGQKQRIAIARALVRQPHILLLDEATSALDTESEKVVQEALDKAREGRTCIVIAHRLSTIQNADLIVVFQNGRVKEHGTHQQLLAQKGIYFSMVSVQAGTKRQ

Which results are given for `OC[C@H]1O[C@@H](c2ccc(Cl)c(Cc3ccc(OCCOC4CC4)cc3)c2)[C@H](O)[C@@H](O)[C@@H]1O` [bexagliflozin, (2S,3R,4R,5S,6R)-2-(4-chloro-3-(4-(2-cyclopropoxyethoxy)benzyl)phenyl)-6-(hydroxymethyl)tetrahydro-2H-pyran-3,4,5-triol]?
intra-subject variability for AUC0-t and AUC0-∞ [1]: < 22%; intra-subject variability for Cmax [1]: approximately 32%; ratio of geometric least square means for AUC0-t, with exenatide to alone [1]: 147.50%; ratio of geometric least square means for AUC0-∞, with exenatide to alone [1]: 137.56%; ratio of geometric least square means for Cmax, with exenatide to alone [1]: 125.27%; increase of AUC0-t compared to bexagliflozin alone ([1]; sc): approximately 48%; increase of AUC0-∞ compared to bexagliflozin alone ([1]; sc): ~38%; increase of Cmax compared to bexagliflozin alone ([1]; sc): ~25%; P-gp substrate status (P-gp): P-gp substrate; colonic absorption [2]: minimal
